Values joined by “and” are separate entries in the source; they are usually repeats but may differ in a detail not shown here. Identical values can stand only once. Inconclusive results and toxic doses are left out. The calls were made as follows: active = survival T/C of 150% or more; inactive = T/C below 125% in these data.
Tested on: P388 leukemia ip, CD2F1 mice, survival T/C
Assay: NCI In Vivo Anticancer Drug Screen. Data for tumor model P388 Leukemia (intraperitoneal) in CD2F1 (CDF1) mice
Details: endpoint: median survival time, higher = longer survival
In short: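 Mice carrying the transplanted tumor received test compound or vehicle. Survival was recorded in each group, and the value is the treated-group measurement divided by that of the vehicle-treated control group.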

[1] = dose: 60.0 mg/kg/injection, schedule: Q01DX005 (ip), vehicle: saline with Tween-80
[2] = dose: 120.0 mg/kg/injection, schedule: Q01DX005 (ip), vehicle: saline with Tween-80
[3] = dose: 240.0 mg/kg/injection, schedule: Q01DX005 (ip), vehicle: saline with Tween-80
[4] = dose: 12.5 mg/kg/injection, schedule: Q01DX005 (ip), vehicle: saline with Tween-80
[5] = dose: 25.0 mg/kg/injection, schedule: Q01DX005 (ip), vehicle: saline with Tween-80
[6] = dose: 50.0 mg/kg/injection, schedule: Q01DX005 (ip), vehicle: saline with Tween-80
[7] = dose: 3.13 mg/kg/injection, schedule: Q01DX009 (ip), vehicle: water
[8] = dose: 100.0 mg/kg/injection, schedule: Q01DX005 (ip), vehicle: saline with Tween-80
[9] = dose: 200.0 mg/kg/injection, schedule: Q01DX005 (ip), vehicle: saline with Tween-80

Measured: T/C

C=C(C)C(=O)OC1CCC2Cc3occ(C)c3C(OC(=O)C(=C)C)C2(C)C1C (stereo not given)
inactive: dose: 20.0 mg/kg/injection, schedule: Q01DX009 (ip), vehicle: saline with Tween-80 93 % of control | dose: 40.0 mg/kg/injection, schedule: Q01DX009 (ip), vehicle: saline with Tween-80 102 % of control | dose: 80.0 mg/kg/injection, schedule: Q01DX009 (ip), vehicle: saline with Tween-80 93 % of control | dose: 160.0 mg/kg/injection, schedule: Q01DX009 (ip), vehicle: saline with Tween-80 93 % of control

N/N=C(/N)[Se]
inactive: dose: 6.25 mg/kg/injection, schedule: Q01DX009 (ip), vehicle: saline 101 % of control | dose: 12.5 mg/kg/injection, schedule: Q01DX009 (ip), vehicle: saline 90 % of control

O=C(O)/C(=C\c1ccccn1)c1ccccc1
inactive: dose: 100.0 mg/kg/injection, schedule: Q04DX002 (ip), vehicle: saline with Tween-80 105 % of control | dose: 200.0 mg/kg/injection, schedule: Q04DX002 (ip), vehicle: saline with Tween-80 105 % of control | dose: 400.0 mg/kg/injection, schedule: Q04DX002 (ip), vehicle: saline with Tween-80 105 % of control

COC(=O)/C=C/N=[N+]=[N-]
inactive: [1] 106 % of control | [2] 106 % of control | [3] 106 % of control

CCCCCC(=N\N=C(N)N)/C(C)=N/N=C(N)N
inactive: [4] 98 % of control | [5] 97 % of control | [6] 101 % of control | dose: 50.0 mg/kg/injection, schedule: Q01DX005 (ip), vehicle: saline 100 % of control

Cc1ccc([P+](CCN2C(=O)c3ccccc3C2=O)(c2ccc(C)cc2)c2ccc(C)cc2)cc1
inactive: dose: 0.39 mg/kg/injection, schedule: Q01DX009 (ip), vehicle: water 111 % of control | dose: 0.78 mg/kg/injection, schedule: Q01DX009 (ip), vehicle: water 121 % of control | dose: 1.56 mg/kg/injection, schedule: Q01DX009 (ip), vehicle: water 115 % of control | [7] 121 % of control

COc1ccc(-n2[nH]c3c(cnc4ccccc43)c2=O)cc1
inactive: dose: 15.0 mg/kg/injection, schedule: Q01DX005 (ip), vehicle: saline with Tween-80 87 % of control | dose: 30.0 mg/kg/injection, schedule: Q01DX005 (ip), vehicle: saline with Tween-80 87 % of control | [1] 90 % of control | [2] 100 % of control | [3] 94 % of control

CC(=O)Nc1ccc(/C=N/NC(=O)CNC(=O)c2ccccc2)cc1
inactive: [1] 95 % of control | [2] 86 % of control

CN1CCC(COC(=O)CC(C)(C)C)C1 (stereo not given)
inactive: [7] 105 % of control | dose: 6.25 mg/kg/injection, schedule: Q01DX009 (ip), vehicle: water 100 % of control | dose: 12.5 mg/kg/injection, schedule: Q01DX009 (ip), vehicle: water 99 % of control | dose: 25.0 mg/kg/injection, schedule: Q01DX009 (ip), vehicle: water 101 % of control | dose: 50.0 mg/kg/injection, schedule: Q01DX009 (ip), vehicle: water 105 % of control | dose: 100.0 mg/kg/injection, schedule: Q01DX009 (ip), vehicle: water 101 % of control

OC(CNC1CCCCC1)CO/N=C1\CCSc2c(Cl)cccc21 (stereo not given)
inactive: dose: 3.12 mg/kg/injection, schedule: Q04DX002 (ip), vehicle: Klucel (hydroxypropylcellulose) (HPC) 94 % of control | dose: 6.25 mg/kg/injection, schedule: Q04DX002 (ip), vehicle: Klucel (hydroxypropylcellulose) (HPC) 99 % of control | dose: 12.5 mg/kg/injection, schedule: Q04DX002 (ip), vehicle: Klucel (hydroxypropylcellulose) (HPC) 103 % of control | dose: 25.0 mg/kg/injection, schedule: Q04DX002 (ip), vehicle: Klucel (hydroxypropylcellulose) (HPC) 100 % of control | dose: 100.0 mg/kg/injection, schedule: Q04DX002 (ip), vehicle: Klucel (hydroxypropylcellulose) (HPC) 96 % of control | dose: 200.0 mg/kg/injection, schedule: Q04DX002 (ip), vehicle: Klucel (hydroxypropylcellulose) (HPC) 87 % of control

CCC(=O)C1C(=O)CC(=O)C(C)C1c1ccccc1OC (stereo not given)
inactive: [6] 92 % of control | [8] 90 % of control | [9] 87 % of control

CC(C)(NCc1ccccc1)C(=O)OC(C)(C)C(=O)NCc1ccccc1
inactive: [5] 100 % of control and 103 % of control | [6] 95 % of control and 108 % of control | [8] 95 % of control

Oc1ccc(CCC2CCC(c3ccc(O)cc3)CO2)cc1 (stereo not given)
inactive: dose: 12.5 mg/kg/injection, schedule: Q01DX005 (ip), vehicle: Klucel (hydroxypropylcellulose) (HPC) 97 % of control | dose: 25.0 mg/kg/injection, schedule: Q01DX005 (ip), vehicle: Klucel (hydroxypropylcellulose) (HPC) 103 % of control | dose: 50.0 mg/kg/injection, schedule: Q01DX005 (ip), vehicle: Klucel (hydroxypropylcellulose) (HPC) 86 % of control | dose: 100.0 mg/kg/injection, schedule: Q01DX005 (ip), vehicle: Klucel (hydroxypropylcellulose) (HPC) 89 % of control | dose: 200.0 mg/kg/injection, schedule: Q01DX005 (ip), vehicle: Klucel (hydroxypropylcellulose) (HPC) 89 % of control

CCN1CC(O)Cc2ccccc21 (stereo not given)
inactive: [1] 100 % of control | [2] 94 % of control

Clc1ccc(OCC(COc2ccc(Cl)cc2)(COc2ccc(Cl)cc2)COc2ccc(Cl)cc2)cc1
inactive: dose: 7.5 mg/kg/injection, schedule: Q01DX009 (ip), vehicle: saline with Tween-80 99 % of control | dose: 15.0 mg/kg/injection, schedule: Q01DX009 (ip), vehicle: saline with Tween-80 104 % of control | dose: 30.0 mg/kg/injection, schedule: Q01DX009 (ip), vehicle: saline with Tween-80 95 % of control

CNC(=O)OCc1c(COC(=O)NC)c2n(c1C)CCS2(=O)=O
inactive: [5] 106 % of control | [6] 101 % of control | [8] 86 % of control | [9] 88 % of control

S=C(NNc1nnc(-c2ccccc2)c(-c2ccccc2)n1)Nc1ccccc1
inactive: [4] 106 % of control | [5] 97 % of control | [6] 90 % of control and 93 % of control

OC1CCc2ncccc2O1 (stereo not given)
inactive: dose: 50.0 mg/kg/injection, schedule: Q01DX009 (ip), vehicle: saline 102 % of control | dose: 100.0 mg/kg/injection, schedule: Q01DX009 (ip), vehicle: saline 102 % of control | dose: 200.0 mg/kg/injection, schedule: Q01DX009 (ip), vehicle: saline 102 % of control

COc1cc(OC2OC(COC3OC(CO)C(O)C(O)C3O)C(O)C(O)C2O)c2c(c1)C(=O)c1cc(C)cc(O)c1C2=O (stereo not given)
inactive: dose: 25.0 mg/kg/injection, schedule: Q01DX005 (ip), vehicle: water 100 % of control | dose: 50.0 mg/kg/injection, schedule: Q01DX005 (ip), vehicle: water 98 % of control | dose: 100.0 mg/kg/injection, schedule: Q01DX005 (ip), vehicle: water 98 % of control | dose: 200.0 mg/kg/injection, schedule: Q01DX005 (ip), vehicle: water 96 % of control

CCCCNCC(=O)Nc1cc(NC(=O)CNCCCC)c(C)c(NC(=O)CNCCCC)c1
inactive: [6] 100 % of control | [8] 104 % of control | [9] 100 % of control

O=C1CC(C(=O)O)N(C(=O)Oc2ccccc2)C(C(=O)O)C1 (stereo not given)
inactive: dose: 4.38 mg/kg/injection, schedule: Q01DX005 (ip), vehicle: Klucel (hydroxypropylcellulose) (HPC) 98 % of control | dose: 8.75 mg/kg/injection, schedule: Q01DX005 (ip), vehicle: Klucel (hydroxypropylcellulose) (HPC) 105 % of control | dose: 17.5 mg/kg/injection, schedule: Q01DX005 (ip), vehicle: Klucel (hydroxypropylcellulose) (HPC) 101 % of control

CCOC(=O)N/C=C/C(C)=O
inactive: [1] 98 % of control | [2] 100 % of control | [3] 106 % of control

Nc1nc(N)n(N)c(=S)n1
inactive: dose: 50.0 mg/kg/injection, schedule: Q04DX003 (ip), vehicle: saline with Tween-80 96 % of control | dose: 100.0 mg/kg/injection, schedule: Q04DX003 (ip), vehicle: saline with Tween-80 106 % of control

— PubChem BioAssay AID330 (DTP/NCI, 2004)
